Data reported in ChEMBL document CHEMBL4613241, “Disulfide Cleavage in a Dimeric Epipolythiodioxopiperazine Natural Product Diminishes Its Apoptosis-Inducing Effect but Enhances Autophagy in Tumor Cells” (2020).
The source made the active and inactive calls. No cut-off for these calls is given here.

Tests used:
HepG2 [1] = experiment: Inhibition of colony formation in human HepG2 at 0.1 uM after 2 weeks by trypan blue staining based assay relative to control; assay type: functional; details: HepG2, 336 h
HepG2 [2] = experiment: Induction of ROS generation in human HepG2 cells at 0.5 uM by DCFH-DA staining based fluorescence assay; assay type: functional, cell-based; details: TDE = time-dependent effect
HepG2 [3] = experiment: Induction of apoptosis in human HepG2 cells assessed as increase in cleaved PARP level by measuring ratio of cleaved PARP to total PARP level at 0.5 uM after 12 hrs by Western blot analysis; assay type: functional
HepG2 [4] = experiment: Induction of apoptosis in human HepG2 cells assessed as increase in cleaved PARP level by measuring ratio of cleaved PARP to total PARP level at 2 uM after 12 hrs by Western blot analysis; assay type: functional
HepG2 [5] = experiment: Induction of autophagy in human HepG2 cells assessed as increase in formation of autophagosome-like vacuoles at 0.5 uM after 2 to 48 hrs by TEM analysis; assay type: functional, cell-based
HepG2 [6] = experiment: Induction of autophagy in human HepG2 cells assessed as increase in formation of autophagosomes at 0.5 uM after 2 to 48 hrs by TEM analysis; assay type: functional, cell-based
HeLa = experiment: Inhibition of colony formation in human HeLa at 1 to 5 uM after 2 weeks by trypan blue staining based assay; assay type: functional, cell-based
HepG2 [7] = experiment: Induction of autophagy in human HepG2 cells assessed as inhibition of lactate generation at 5 uM up to 4 hrs; assay type: functional, cell-based
HepG2 [8] = experiment: Inhibition of colony formation in human HepG2 at 1 to 5 uM after 2 weeks by trypan blue staining based assay; assay type: functional, cell-based
T-24 = experiment: Induction of apoptosis in human T24 cells assessed as increase in cleaved PARP1 level at 5 uM after 12 hrs by Western blot analysis; assay type: functional, cell-based
HepG2 [9] = experiment: Antiproliferative activity against human HepG2 cells assessed as reduction in cell viability at 5 uM by MTS assay; assay type: functional, cell-based; details: TDE = time-dependent effect

| Compound | inhibition at 0.1 µM (HepG2 [1]) [%] | Activity (HepG2 [2]) | Ratio (HepG2 [3]) | Ratio (HepG2 [4]) | Activity (HepG2 [5]) | Activity (HepG2 [6]) | inhibition (HeLa) | inhibition (HepG2 [7]) | inhibition (HepG2 [8]) | Activity (T-24) | Activity (HepG2 [9]) |
| --- | --- | --- | --- | --- | --- | --- | --- | --- | --- | --- | --- |
| CC[C@@]12SS[C@]3(C(=O)N1C)[C@@H](O)C1(C45c6ccccc6N[C@@H]4N4C(=O)[C@]6([C@@H](C)O)SS[C@]4(C(=O)N6C)[C@H]5O)c4ccccc4N[C@@H]1N3C2=O (stereo partly specified) | 100 | Tde | 0.1 | 1.7 |  |  |  |  |  |  |  |
| CCC1(SC)C(=O)N2[C@H]3N(C)c4ccccc4C3(C34c5ccccc5N(C)[C@@H]3N3C(=O)C(SC)([C@@H](C)O)N(C)C(=O)C3(SC)[C@H]4O)[C@H](O)C2(SC)C(=O)N1C (stereo partly specified) |  |  |  |  | Active | Active | Active | Active | Active | inactive | Tde |
